System: Rainbow trout (Onchorhynchus mykiss, Shasta strain)
Experiment: Rainbow trout feeding trial, 84 days: whole or disrupted Phaffia yeast versus synthetic astaxanthin
Assay type: in vivo
Settings: after 84 days of feeding, FIG. 10, Phaffia versus synthetic astaxanthin
Method: The Phaffia strain was grown in a 2,000 l fermentor in a manner substantially described as above. Cells were concentrated to 15-22% solids by centrifugation and dried. The feed was processed by Zeigler Bros. Inc., […], Pa. The novel Phaffia rhodozma or synthetic astaxanthin (5% Carophyll Pink, Hoffmann-LaRoche) were incorporated into their #1⁄8 Trout Grower pelleted food. Rainbow trout (Onchorhynchus mykiss, Shasta strain) were obtained from a local commercial trout grower. After acclimation to laboratory conditions and an experimental control diet, the trout were moved into separate experimental tanks (28 fish per tank). […] Collectively, the procedures and diets employed in the experiments were designed to result in near-optimal growth of trout at 10 C, the approximate temperature at which most commercially-produced trout are raised. […] The fish were stunned by a blow to the head; total length measured; weight after blotting dry determined; and then each fish was cut across the isthmus severing the ventral aorta. […] The carotenoids were then partitioned into hexanes:ethyl acetate (1:1 by volume) and the total carotenoid and astaxanthin content were determined as described above in the section entitled PIGMENT EXTRACTION AND ASTAXANTHIN ANALYSIS. […] The DMSO extracted carotenoids were then quantified as described above in the section entitled PIGMENT EXTRACTION AND ASTAXANTHIN ANALYSIS. […]

Q: For `CC1=C(/C=C/C(C)=C/C=C/C(C)=C/C=C/C=C(C)/C=C/C=C(C)/C=C/C2=C(C)C(=O)C(O)CC2(C)C)C(C)(C)CC(O)C1=O` (stereo not drawn) [synthetic astaxanthin, 3,3′-dihydroxy-β,β-carotene-4,4′-dione], which flesh carotenoid content is on record?
A: the same
